Publication PMC5900025, “Naphthoquinone Derivatives as Scaffold to Develop New Drugs for Tuberculosis Treatment” (Frontiers in Microbiology, 2018)
Converted amounts (≈) assume the structure as drawn.

Key:
[1] = tested on: M. tuberculosis mono-resistant to RIF (RMPR, ATCC 35838), rpoB H526Y; assay type: cell-based, Mycobacterium tuberculosis
[2] = tested on: M. tuberculosis mono-resistant to INH (INHR, ATCC 35822), katG S315T; assay type: cell-based, Mycobacterium tuberculosis

Structure (SMILES): C=CCOC1=CC(=O)c2ccccc2C1=O [Compound 4, 2-(Allyloxy)naphthalene-1,4-dione]
- MIC [1]: 234 µM (≈ 50.1 µg/mL)
- MIC [2]: 234 µM (≈ 50.1 µg/mL)

Structure (SMILES): NC1=CC(=O)c2ccccc2C1=O [Compound 5, 2-Aminonaphthalene-1,4-dione]
- MIC [1]: 36.1 µM (≈ 6.25 µg/mL)
- MIC [2]: 36.1 µM (≈ 6.25 µg/mL)

Structure (SMILES): CC1(C)CC2=C(O1)C(=O)c1ccccc1C2=O [Compound 3, 2,2-Dimethyl-2,3-dihydronaphtho[2,3-b]furan-4,9-dione]
- MIC [1]: 54.8 µM (≈ 12.5 µg/mL)
- MIC [2]: 54.8 µM (≈ 12.5 µg/mL)

Structure (SMILES): NNC(=O)c1ccncc1 [INH, isoniazid, reference compound]
- MIC [1]: ≤0.219 µM
- MIC [2]: 14.6 µM (≈ 2 µg/mL)

Structure (SMILES): O=C1C=C(Nc2ccccc2)C(=O)c2ccccc21 [Compound 6, 2-(Phenylamino)naphthalene-1,4-dione]
- MIC [1]: 12.5 µM (≈ 3.12 µg/mL)
- MIC [2]: 100.4 µM (≈ 25 µg/mL)

Structure (SMILES): CO[C@H]1/C=C/O[C@@]2(C)Oc3c(C)c(O)c4c(O)c(c(/C=N/N5CCN(C)CC5)c(O)c4c3C2=O)NC(=O)/C(C)=C\C=C\[C@H](C)[C@H](O)[C@@H](C)[C@@H](O)[C@@H](C)[C@H](OC(C)=O)[C@@H]1C [RIF, rifampicin, reference compound]
- MIC [1]: 622.2 µM (≈ 512 µg/mL)
- MIC [2]: 0.304 µM (≈ 0.25 µg/mL)

Structure (SMILES): O=C1C(Cl)=C(Cl)C(=O)c2ccccc21 [Compound 1, 2,3-Dichloronaphthalene-1,4-dione]
- MIC [1]: 110.6 µM (≈ 25.1 µg/mL)
- MIC [2]: 110.6 µM (≈ 25.1 µg/mL)

Structure (SMILES): CC1(C)CCC2=C(O1)C(=O)c1ccccc1C2=O [Compound 2, 2,2-Dimethyl-3,4-dihydro-2H-benzo[g]chromene-5, 10-dione]
- MIC [1]: 206.6 µM (≈ 50.1 µg/mL)
- MIC [2]: 206.6 µM (≈ 50.1 µg/mL)
